Source: patent publication US8193372B2, “Phosphothiophene and phosphothiazole HCV polymerase inhibitors” (Idenix Pharmaceuticals, Inc., priority 2009, dated 2012)

Assays:
[1] = system: HCV Con1 subgenomic replicon of genotype 1b (GS4.1 cells); test: microbe, parasite or virus in culture; format: cell-based, HCV genotype 1b; conditions: Hepatitis C virus; for EC50: 72 h
[2] = Cytotoxicity (CC50) reported with the HCV replicon ELISA assay; conditions: human
in vitro = conditions: human
[3] = system: Huh-7-derived cell line (Zluc) that harbors an HCV genotype 1b replicon and a luciferase reporter gene; test: microbe, parasite or virus in culture; format: cell-based; conditions: Hepatitis C virus, 72 h
[4] = system: Huh-7-derived cell line (Zluc) that harbors an HCV genotype 1b replicon and a luciferase reporter gene; test: microbe, parasite or virus in culture; format: cell-based; conditions: Hepatitis C virus, 72 h; remark: listed apart in the source

Q: Which results are given for `Cc1ccc(P(=O)(O)Nc2cc(-c3ccc(F)cc3)sc2C(=O)O)c(C)c1` [Compound 1]?
A: IC50 [1]: 0.1 to 8.3 µM; EC50 [1]: > 8.3 µM; CC50 at 72 hr [2]: > 8.3 µM

Q: Which IC50 [1] does the source give for `CCOP(=O)(Nc1cc(-c2ccc(-c3cc4ncccn4n3)cc2)sc1C(=O)O)c1ccc(Cl)cc1Cl` (stereo not drawn) [Compound 11, 3-N-[(2,4-dichloro-phenyl)-phosphonamidateethyl ester]-5-(4-pyrazolo[1,5-a]pyrimidin-2-ylphenyl)-2-thiophenecarboxylic acid] here?
A: The IC50 was less than 0.1 µM.

Q: What about the EC50 [1] of the same compound?
A: Its EC50 is less than 0.1 µM.

Q: And the CC50 (in vitro)?
A: Its CC50 is greater than 8.3 µM.

Q: And the EC50 [3]?
A: Its EC50 is 0.1 to 8.3 µM.

Q: What about the EC50 [4] of the same compound?
A: Its EC50 is less than 0.1 µM.

Q: What does the source list for `COP(=O)(Nc1cc(-c2ccc(F)cc2)sc1C(=O)O)c1ccc(C)cc1C` (stereo not drawn) [Compound 21, 2-Thiophenecarboxylic acid, 3-N-[(2,4-dimethyl-phenyl)-phosphonamidatemethyl ester]-5-(4-fluorophenyl)]?
A: IC50 [1]: 0.1 to 8.3 µM; EC50 [1]: 0.1 to 8.3 µM; CC50 (in vitro): > 8.3 µM; EC50 [3]: > 8.3 µM; EC50 [4]: 0.1 to 8.3 µM

Q: Which results are given for `CCOP(=O)(Nc1cc(-c2ccc(C#Cc3cscn3)cc2)sc1C(=O)O)c1ccc(Cl)cc1Cl` (stereo not drawn) [Compound 24, 3-N-[(2,4-dichloro-phenyl)-phosphonamidateethyl ester]-5-(4-phenyl-ethynyl-1,3-thiazole)-2-thiophenecarboxylic acid]?
A: IC50 [1]: < 0.1 µM; EC50 [1]: 0.1 to 8.3 µM; CC50 (in vitro): > 8.3 µM; EC50 [3]: 0.1 to 8.3 µM; EC50 [4]: 0.1 to 8.3 µM

Q: With `COP(=O)(c1ccc(C)cc1C)N(C)c1cc(-c2ccc(F)cc2)sc1C(=O)O` (stereo not drawn) [Compound 32, 2-Thiophenecarboxylic acid, 3-N-methyl-N-[(2,4-dimethyl-phenyl)-phosphonamidatemethyl ester]-5-(4-fluorophenyl)] as the compound, how does the IC50 [1] read?
A: Its IC50 is 0.1 to 8.3 µM.

Q: And the EC50 [1]?
A: Its EC50 is 0.1 to 8.3 µM.

Q: What about the CC50 (in vitro) of the same compound?
A: The CC50 was greater than 8.3 µM.

Q: What about the EC50 [3] of the same compound?
A: The EC50 was greater than 8.3 µM.

Q: What about the EC50 [4] of the same compound?
A: Its EC50 is 0.1 to 8.3 µM.

Q: For `Cc1ccc(P(=O)(Nc2cc(-c3ccc(Cl)cc3)sc2C(=O)O)OCCC(C)C)c(C)c1` (stereo not drawn) [Compound 81], which IC50 [1] is on record?
A: The IC50 was 0.1 to 8.3 µM.

Q: And the EC50 [1]?
A: The EC50 was 0.1 to 8.3 µM.

Q: What about the CC50 at 72 hr [2] of the same compound?
A: Its CC50 at 72 hr is greater than 8.3 µM.

Q: With `Cc1ccc(P(=O)(Nc2cc(-c3ccc(Cl)cc3)sc2C(=O)O)OCC2CCOCC2)c(C)c1` (stereo not drawn) [Compound 84] as the compound, how does the IC50 [1] read?
A: The IC50 was 0.1 to 8.3 µM.

Q: What about the EC50 [1] of the same compound?
A: Its EC50 is 0.1 to 8.3 µM.

Q: And the CC50 at 72 hr [2]?
A: Its CC50 at 72 hr is greater than 8.3 µM.

Q: With `COCCOP(=O)(Nc1cc(-c2ccc(Cl)cc2)sc1C(=O)O)c1ccc(C)cc1C` (stereo not drawn) [Compound 85] as the compound, how does the IC50 [1] read?
A: The IC50 was 0.1 to 8.3 µM.

Q: What about the EC50 [1] of the same compound?
A: Its EC50 is 0.1 to 8.3 µM.

Q: And the CC50 at 72 hr [2]?
A: The CC50 at 72 hr was greater than 8.3 µM.

Q: What does the source list for `Cc1ccc(P(=O)(Nc2cc(-c3ccc(Cl)cc3)sc2C(=O)O)OCC(C)C)c(C)c1` (stereo not drawn) [Compound 86]?
A: IC50 [1]: 0.1 to 8.3 µM; EC50 [1]: 0.1 to 8.3 µM; CC50 at 72 hr [2]: > 8.3 µM

Q: Which results are given for `Cc1ccc(P(=O)(Nc2cc(-c3ccc(Cl)cc3)sc2C(=O)O)OCCC(C)(C)C)c(C)c1` (stereo not drawn) [Compound 90]?
A: IC50 [1]: 0.1 to 8.3 µM; EC50 [1]: 0.1 to 8.3 µM; CC50 at 72 hr [2]: > 8.3 µM

Q: For `Cc1ccc(P(=O)(Nc2cc(-c3ccc(Cl)cc3)sc2C(=O)O)OCC2CC2)c(C)c1` (stereo not drawn) [Compound 91], which IC50 [1] is on record?
A: The IC50 was 0.1 to 8.3 µM.

Q: What about the EC50 [1] of the same compound?
A: Its EC50 is 0.1 to 8.3 µM.

Q: And the CC50 at 72 hr [2]?
A: The CC50 at 72 hr was greater than 8.3 µM.

Q: With `Cc1ccc(P(=O)(Nc2cc(-c3ccc(Cl)cc3)sc2C(=O)O)OCCc2ccc(F)cc2)c(C)c1` (stereo not drawn) [Compound 92] as the compound, how does the IC50 [1] read?
A: The IC50 was 0.1 to 8.3 µM.

Q: What about the EC50 [1] of the same compound?
A: The EC50 was 0.1 to 8.3 µM.

Q: What about the CC50 at 72 hr [2] of the same compound?
A: The CC50 at 72 hr was greater than 8.3 µM.

Q: With `Cc1ccc(P(=O)(Nc2cc(-c3ccc(Cl)cc3)sc2C(=O)O)OCc2cc3ccccc3o2)c(C)c1` (stereo not drawn) [Compound 93] as the compound, how does the IC50 [1] read?
A: The IC50 was 0.1 to 8.3 µM.

Q: And the EC50 [1]?
A: The EC50 was 0.1 to 8.3 µM.

Q: What about the CC50 at 72 hr [2] of the same compound?
A: Its CC50 at 72 hr is greater than 8.3 µM.

Q: Which IC50 [1] does the source give for `Cc1ccc(P(=O)(Nc2cc(-c3ccc(Cl)cc3)sc2C(=O)O)OC2CCOC2)c(C)c1` (stereo not drawn) [Compound 94] here?
A: The IC50 was 0.1 to 8.3 µM.

Q: And the EC50 [1]?
A: The EC50 was 0.1 to 8.3 µM.

Q: What about the CC50 at 72 hr [2] of the same compound?
A: Its CC50 at 72 hr is greater than 8.3 µM.

Q: What does the source list for `COC1CCC(OP(=O)(Nc2cc(-c3ccc(Cl)cc3)sc2C(=O)O)c2ccc(C)cc2C)CC1` (stereo not drawn) [Compound 95]?
A: IC50 [1]: 0.1 to 8.3 µM; EC50 [1]: 0.1 to 8.3 µM; CC50 at 72 hr [2]: > 8.3 µM

Q: For `Cc1ccc(P(=O)(Nc2cc(-c3ccc(Cl)cc3)sc2C(=O)O)OCc2ccccc2)c(C)c1` (stereo not drawn) [Compound 107], which EC50 [1] is on record?
A: Its EC50 is 0.1 to 8.3 µM.

Q: What about the CC50 at 72 hr [2] of the same compound?
A: The CC50 at 72 hr was greater than 8.3 µM.

Q: For `CCOCCOP(=O)(Nc1cc(-c2ccc(Cl)cc2)sc1C(=O)O)c1ccc(C)cc1C` (stereo not drawn) [Compound 130], which IC50 [1] is on record?
A: The IC50 was 0.1 to 8.3 µM.

Q: And the CC50 at 72 hr [2]?
A: The CC50 at 72 hr was greater than 8.3 µM.

Q: For `Cc1ccc(P(=O)(Nc2cc(-c3ccc(Cl)cc3)sc2C(=O)O)OC2CCOCC2)c(C)c1` (stereo not drawn) [Compound 135], which IC50 [1] is on record?
A: Its IC50 is less than 0.1 µM.

Q: What about the EC50 [1] of the same compound?
A: The EC50 was 0.1 to 8.3 µM.

Q: And the CC50 at 72 hr [2]?
A: The CC50 at 72 hr was greater than 8.3 µM.

Q: For `CCCCOP(=O)(Nc1cc(-c2ccc(Cl)cc2)sc1C(=O)O)c1ccc(C)cc1C` (stereo not drawn) [Compound 137], which IC50 [1] is on record?
A: The IC50 was 0.1 to 8.3 µM.

Q: And the EC50 [1]?
A: The EC50 was 0.1 to 8.3 µM.

Q: And the CC50 at 72 hr [2]?
A: The CC50 at 72 hr was greater than 8.3 µM.

Q: Which results are given for `COP(=O)(Nc1cc(-c2ccc(C#Cc3cscn3)cc2)sc1C(=O)O)c1ccc(C)cc1C` (stereo not drawn) [Compound 139]?
A: IC50 [1]: < 0.1 µM; EC50 [1]: < 0.1 µM; CC50 (in vitro): > 8.3 µM

Q: Which results are given for `COC(=O)c1sc(-c2ccc(Cl)cc2)cc1NP(=O)(OC)c1ccc(C)cc1C` (stereo not drawn) [Compound 140]?
A: EC50 [1]: > 8.3 µM; CC50 (in vitro): > 8.3 µM

Q: For `COP(=O)(Nc1cc(-c2ccc(Br)cc2)sc1C(=O)O)c1ccc(C)cc1C` (stereo not drawn) [Compound 141], which IC50 [1] is on record?
A: Its IC50 is less than 0.1 µM.

Q: What about the EC50 [1] of the same compound?
A: Its EC50 is 0.1 to 8.3 µM.

Q: What about the CC50 (in vitro) of the same compound?
A: Its CC50 is greater than 8.3 µM.

Q: Which EC50 [1] does the source give for `COC(=O)c1sc(-c2ccc(-c3cc4ncccn4n3)cc2)cc1NP(=O)(OC)c1ccc(C)cc1C` (stereo not drawn) [Compound 142] here?
A: Its EC50 is 0.1 to 8.3 µM.

Q: And the CC50 (in vitro)?
A: Its CC50 is greater than 8.3 µM.

Q: What does the source list for `COP(=O)(Nc1cc(-c2ccc(C#Cc3ccccn3)cc2)sc1C(=O)O)c1ccc(C)cc1C` (stereo not drawn) [Compound 143]?
A: IC50 [1]: < 0.1 µM; EC50 [1]: < 0.1 µM; CC50 (in vitro): > 8.3 µM

Q: What does the source list for `COC(=O)c1sc(-c2ccc(I)cc2)cc1NP(=O)(OC)c1ccc(C)cc1C` (stereo not drawn) [Compound 144]?
A: EC50 [1]: > 8.3 µM; CC50 (in vitro): > 8.3 µM
